Source: patent US6780883B2, “Amide inhibitors of microsomal triglyceride transfer protein” (Warner-Lambert Company, priority 1998, dated 2004)
Where two headings read alike, the source gives them in different places.

How the values were obtained:
[1] = molecular target: apolipoprotein(a), [apo(a)], apolipoproteinB-100, [apoB-100], coupling reaction that generates Lp(a) (Homo sapiens, UniProt P04114+P08519); assay: LPABC screen: lipoprotein(a) biochemical coupling assay, Lp(a) content by ELISA; conditions: recombinant apo(a) 17-kringle (293 cell media) + HepG2 conditioned media, 67 minutes, 37° C., 0.3 to 50 μM compound; read-out: Lp ABC IC50
Experimental: LPABC Screen The lipoprotein(a), [Lp(a)], biochemical coupling assay (LPABC) is used to characterize inhibitors of the apolipoprotein(a), [apo(a)], apolipoproteinB-100, [apoB-100], coupling reaction that generates Lp(a). Conditioned media from 293 cells (ATCC CRL-1573), permanently transfected with an apo(a) 17-kringle cDNA expression construct (pcDNA-AMP, In Vitrogen, Carlsbad, Calif.) using standard molecular biology techniques, was used as a source of recombinant apo(a) is diluted 1:3 with phosphate buffered saline (PBS) and 90 μL is pipetted into each well of a 96-well plate and placed into a 37° C. incubator for 10 minutes. Twenty microliters of a 0.3 to 50 μM solution of a compound of the present invention in PBS is added to the warmed plate. Ninety microliters of HepG2 (ATCC HB-8065) cell conditioned media diluted 1:3 with PBS is added to the apo(a)/compound mixture and mixed by pipetting up and down 5 times. The reaction is incubated for 67 minutes in a 37° C. incubator. A 100 μL aliquot of the reaction is removed and assayed for its Lp(a) content by an enzyme linked immunosorbent assay (ELISA).

[2] = system: Lp(a) production in HepG2^K17 cells; assay: LPA3 screen: inhibition of Lp(a) production in transfected HepG2 cells, Lp(a) in media by ELISA; type: cell-based; conditions: 8 hours, 0.3 to 50 μM compound, Lp(a) normalized for total protein, read-out: Lp A3 IC50
Experimental: The LPA3 screen is used to identify compounds that inhibit Lp(a) production. This screen employs permanently transfected HepG2 cells (HepG2^K17) that are generated using an apo(a) 17-kringle cDNA expression construct (pcDNA-AMP, In Vitrogen, Carlsbad, Calif.) in accordance with methods that are well-known in molecular biology.
HepG2^K17 cells are seeded in 96-well plates at a density of 75,000 cells per well in 0.25 mL of Dulbecco's Modified Eagle Media (DMEM) containing 10% fetal bovine serum (FBS). Seeded plates are incubated overnight in a 37° C., 5% CO2/95% 02 incubator. The media is removed, replaced with (1) fresh media, or (2) fresh media plus 0.3 to 50 μM of a compound of the present invention in 20 μL of PBS, and the plates returned to the incubator for 8 hours. After the additional 8 hours of incubation, Lp(a) is assayed in the media by ELISA. Cells are digested with 0.5N NaOH overnight and assayed for total protein. Lp(a) values are normalized for total protein content.

Compound | IC50 [1] [µM] | IC50 ([2]; Homo sapiens) [µM] | IC50 [2] [µM]
COc1ccc(CN(C(=O)c2ccccc2SCc2ccccc2)c2ccc(OC)cc2)cc1 [Example 40, 2-Benzylsulfanyl-N-(4-methoxy-benzyl)-N-(4-methoxy-phenyl)-benzamide] | > 50 | 60.4 | –
COc1ccc(C(=O)N(Cc2cc(C(C)(C)C)cc(C(C)(C)C)c2)c2ccccc2)cc1OC [Example 41, N-(3,5-Di-tert-butyl-benzyl)-3,4-dimethoxy-N-phenyl-benzamide] | > 50 | 49.3 | –
COc1ccc(C(=O)N(Cc2cc(C(F)(F)F)cc(C(F)(F)F)c2)c2ccccc2)cc1OC [Example 42, N-(3,5-Bis-trifluoromethyl-benzyl)-3,4-dimethoxy-N-phenyl-benzamide] | > 50 | 70.8 | –
COc1ccc(C(=O)N(Cc2cc(Br)cc(Br)c2)c2ccccc2)cc1OC [Example 43, N-(3,5-Dibromo-benzyl)-3,4-dimethoxy-N-phenyl-benzamide] | > 50 | 31.6 | –
COc1ccc(CN(C(=O)c2ccc(OC)c(OC)c2)c2ccccc2)cc1 [Example 44, 3,4-Dimethoxy-N-(4-methoxy-benzyl)-N-phenyl-benzamide] | > 50 | 51.4 | –
COc1cccc(CN(C(=O)c2ccc(OC)c(OC)c2)c2ccccc2)c1 [Example 45, 3,4-Dimethoxy-N-(3-methoxy-benzyl)-N-phenyl-benzamide] | > 50 | 52.1 | –
COc1ccc(C(=O)N(Cc2ccc(Cl)c(Cl)c2)c2ccccc2)cc1OC [Example 46, N-(3,4-Dichloro-benzyl)-3,4-dimethoxy-N-phenyl-benzamide] | > 50 | 35.1 | –
COc1ccc(C(=O)N(Cc2ccc3ccccc3c2)c2ccccc2)cc1OC [Example 47, 3,4-Dimethoxy-N-naphthalen-2-ylmethyl-N-phenyl-benzamide] | > 50 | 17.3 | –
COc1ccc(C(=O)N(Cc2ccc(C(C)(C)C)cc2)c2ccccc2)cc1OC [Example 48, N-(4-tert-Butyl-benzyl)-3,4-dimethoxy-N-phenyl-benzamide] | > 50 | 30.9 | –
COc1ccc(C(=O)N(Cc2ccccc2-c2ccccc2)c2ccccc2)cc1OC [Example 49, N-Biphenyl-2-ylmethyl-3,4-dimethoxy-N-phenyl-benzamide] | > 50 | 14 | –
COc1ccccc1N(Cc1ccc(Cl)c(Cl)c1)C(=O)c1ccccc1 [Example 50, N-(3,4-Dichloro-benzyl)-N-(2-methoxy-phenyl)-benzamide] | > 50 | 15 | –
CCN(CC)CCCc1ccc(N(Cc2cc(C(C)(C)C)cc(C(C)(C)C)c2)C(=O)c2ccccc2)cc1 [Example 51, N-(3,5-Di-tert-butyl-benzyl)-N-[4-(3-diethylamino-propyl)-phenyl]-benzamide] | > 50 | 24.5 | –
CCN(CC)CCCc1ccc(N(Cc2cc(C(F)(F)F)cc(C(F)(F)F)c2)C(=O)c2ccccc2)cc1 [Example 52, N-(3,5-Bis-trifluoromethyl-benzyl)-N-[4-(3-diethylamino-propyl)-phenyl]-benzamide] | > 50 | 12 | –
CCN(CC)CCCc1ccc(N(Cc2cc(Br)cc(Br)c2)C(=O)c2ccccc2)cc1 [Example 53, N-(3,5-Dibromo-benzyl)-N-[4-(3-diethylamino-propyl)-phenyl]-benzamide] | > 50 | 14.6 | –
CCN(CC)CCCc1ccc(N(Cc2ccc(OC)cc2)C(=O)c2ccccc2)cc1 [Example 54, N-[4-(3-Diethylamino-propyl)-phenyl]-N-(4-methoxy-benzyl)-benzamide] | > 50 | 41.6 | –
CCN(CC)CCCc1ccc(N(Cc2cccc(OC)c2)C(=O)c2ccccc2)cc1 [Example 55, N-[4-(3-Diethylamino-propyl)-phenyl]-N-(3-methoxy-benzyl)-benzamide] | > 50 | 37 | –
CCN(CC)CCCc1ccc(N(Cc2ccc(Cl)c(Cl)c2)C(=O)c2ccccc2)cc1 [Example 56, N-(3,4-Dichloro-benzyl)-N-[4-(3-diethylamino-propyl)-phenyl]-benzamide] | > 50 | 11 | –

Compound | IC50 [1] [µM] | IC50 ([2]; Homo sapiens) [µM] | IC50 [2] [µM]
CCN(CC)CCCc1ccc(N(Cc2ccc3ccccc3c2)C(=O)c2ccccc2)cc1 [Example 57, N-[4-(3-Diethylamino-propyl)-phenyl]-N-naphthalen-2-ylmethyl-benzamide] | > 50 | 11.4 | –
CCN(CC)CCCc1ccc(N(Cc2ccccc2-c2ccccc2)C(=O)c2ccccc2)cc1 [Example 58, N-Biphenyl-2-ylmethyl-N-[4-(3-diethylamino-propyl)-phenyl]-benzamide] | > 50 | 11.6 | –
Cc1ccsc1C(=O)N(Cc1ccc2c(c1)C(C)(C)CCC2(C)C)c1ccc(I)cc1 [Example 59, 3-Methyl-thiophene-2-carboxylic acid (4-iodo-phenyl)-(5,5,8,8-tetramethyl-5,6,7,8-tetrahydro-naphthalen-2-ylmethyl)-amide] | > 50 | 41.1 | –
COc1ccc(CN(C(=O)c2ccccc2)c2ccccc2)cc1 [Example 60, N-(4-Methoxy-benzyl)-N-phenyl-benzamide] | > 50 | 28.8 | –
COc1cccc(CN(C(=O)c2ccccc2)c2ccccc2)c1 [Example 61, N-(3-Methoxy-benzyl)-N-phenyl-benzamide] | > 50 | 47.1 | –
COc1cc(C(=O)N(Cc2ccc3ccccc3c2)c2cnc3ccccc3c2)cc(OC)c1OC [Example 62, 3,4,5-Trimethoxy-N-naphthalen-2-ylmethyl-N-quinolin-3-yl-benzamide] | > 50 | 22.2 | –
COc1cc(C(=O)N(Cc2ccc(C(C)(C)C)cc2)c2cnc3ccccc3c2)cc(OC)c1OC [Example 63, N-(4-tert-Butyl-benzyl)-3,4,5-trimethoxy-N-quinolin-3-yl-benzamide] | > 50 | 25.1 | –
COc1cc(C(=O)N(Cc2ccccc2-c2ccccc2)c2cnc3ccccc3c2)cc(OC)c1OC [Example 64, N-Biphenyl-2-ylmethyl-3,4,5-trimethoxy-N-quinolin-3-yl-benzamide] | > 50 | 13.1 | –
COc1ccc(N(Cc2ccc3c(c2)C(C)(C)CCC3(C)C)C(=O)c2cc(OC)c(OC)c(OC)c2)cn1 [Example 65, 3,4,5-Trimethoxy-N-(6-methoxy-pyridin-3-yl)-N-(5,5,8,8-tetramethyl-5,6,7,8-tetrahydro-naphthalen-2-ylmethyl)-benzamide] | > 50 | 32.6 | –
COc1ccc(N(Cc2cc(C(C)(C)C)cc(C(C)(C)C)c2)C(=O)c2cc(OC)c(OC)c(OC)c2)cn1 [Example 66, N-(3,5-Di-tert-butyl-benzyl)-3,4,5-trimethoxy-N-(6-methoxy-pyridin-3-yl)-benzamide] | > 50 | 19.7 | –
COc1ccc(N(Cc2ccc(Cl)c(Cl)c2)C(=O)c2cc(OC)c(OC)c(OC)c2)cn1 [Example 67, N-(3,4-Dichloro-benzyl)-3,4,5-trimethoxy-N-(6-methoxy-pyridin-3-yl)-benzamide] | > 50 | 54.6 | –
CC(C)c1ccc(C(=O)N(Cc2ccc3c(c2)C(C)(C)CCC3(C)C)c2cccnc2)cc1 [Example 68, 4-Isopropyl-N-pyridin-3-yl-N-(5,5,8,8-tetramethyl-5,6,7,8-tetrahydro-naphthalen-2-ylmethyl)-benzamide] | > 50 | 39.8 | –
COc1cccc(CN(C(=O)c2ccc(C(C)C)cc2)c2cccnc2)c1 [Example 69, 4-Isopropyl-N-(3-methoxy-benzyl)-N-pyridin-3-yl-benzamide] | > 50 | 18.8 | –
CC(C)c1ccc(C(=O)N(Cc2ccc3ccccc3c2)c2cccnc2)cc1 [Example 70, 4-Isopropyl-N-naphthalen-2-ylmethyl-N-pyridin-3-yl-benzamide] | > 50 | 7.2 | –
CC(C)c1ccc(C(=O)N(Cc2ccc(C(C)(C)C)cc2)c2cccnc2)cc1 [Example 71, N-(4-tert-Butyl-benzyl)-4-isopropyl-N-pyridin-3-yl-benzamide] | > 50 | 43 | –
N-Biphenyl-2-ylmethyl-N-(3,4-dimethoxy-phenyl)-2-phenylmethanesulfinyl- [Example 143] | – | – | 1.6
